Values quoted from earlier work in patent US20190230969A1, “COMPOSITION OF PURIFIED SOLUBLE MANNANS FOR DIETARY SUPPLEMENTS AND METHODS OF USE THEREOF” (priority 2010, published 2019).

How the values were obtained:
patients = details: in vivo
[1] = tested on: normal and castrated rats; details: 10 mg/kg subcutaneously biweekly, 4 weeks

Row | SMILES | gastrointestinal disturbances (flatulence, abdominal distension, borborygmus, diarrhea) (patients) | effect on BUN and testosterone levels [1]
1 | C[C@H]1O[C@H](O[C@H]2[C@H](O)[C@@H](O)[C@@H](O[C@H]3[C@H](O)[C@@H](O)C(O)O[C@@H]3CO)O[C@@H]2CO)[C@H](O)[C@@H](O)[C@@H]1N[C@H]1C=C(CO)[C@@H](O)[C@H](O)[C@H]1O (some centres unmarked) [acarbose] | High incidence of gastrointestinal disturbances | –
2 | C[C@]12CC[C@H]3[C@@H](CCC4=CC(=O)CC[C@@]43C)[C@@H]1CC[C@@H]2O [testosterone] | – | increases
